Laboratory results as given in ChEMBL document CHEMBL1136642, “Substituted 4-methylquinolines as a new class of anti-tuberculosis agents” (Bioorg Med Chem Lett, 2003).
Values after ≈ are worked out from the molar mass of the structure shown.

Key:
[1] = test system: Mycobacterium tuberculosis; assay: Minimum inhibitory concentration against Mycobacterium tuberculosis strain, Erdman; format: functional
[2] = test system: Mycobacterium tuberculosis; assay: Minimum inhibitory concentration against Mycobacterium tuberculosis strain, INH-R; format: functional
[3] = test system: Mycobacterium tuberculosis; assay: Minimum inhibitory concentration against Mycobacterium tuberculosis strain H37Rv, using Alamar assay; format: functional
[4] = Ratio of minimum bactericidal concentration (MBC) against H37Rv to that of minimum inhibitory concentration (MIC) to H37Rv in Alamar assay(Mycobacterium tuberculosis); format: functional
[5] = test system: Mycobacterium tuberculosis; assay: Minimum inhibitory concentration against Mycobacterium tuberculosis strain, RMP-R; format: functional
[6] = Ratio of minimum bactericidal concentration (MBC) against INH-R to that of minimum inhibitory concentration (MIC) to H37Rv in Alamar assay(Mycobacterium tuberculosis); format: functional
[7] = test system: Vero; assay: In vitro cytotoxicity was determined against VERO cells; format: functional, cell-based; conditions: Chlorocebus sabaeus
[8] = Ratio of minimum bactericidal concentration (MBC) against RMP-R to that of minimum inhibitory concentration (MIC) to H37Rv in Alamar assay(Mycobacterium tuberculosis); format: functional
[9] = test system: Mycobacterium tuberculosis; assay: In vitro anti-mycobacterial activity against Mycobacterium tuberculosis H37Rv; format: functional; design: concentration or dose not given beside the values
[10] = test system: Mycobacterium tuberculosis; assay: Minimum bactericidal concentration (MBC) against INH-R; format: functional
[11] = test system: Mycobacterium tuberculosis; assay: Minimum inhibitory concentration against Mycobacterium tuberculosis strain, EMB-R; format: functional
[12] = test system: Mycobacterium tuberculosis; assay: Minimum inhibitory concentration against Mycobacterium tuberculosis strain, KM-R; format: functional
[13] = test system: Mycobacterium tuberculosis; assay: Minimum bactericidal concentration (MBC) against RMP-R; format: functional
[14] = test system: Mycobacterium tuberculosis; assay: Minimum inhibitory concentration against Mycobacterium tuberculosis strain, CIP-R; format: functional
[15] = test system: Mycobacterium tuberculosis; assay: Minimum inhibitory concentration required to inhibit 90% of the inoculum of tuberculosis H37Rv; format: functional
[16] = test system: Mycobacterium tuberculosis; assay: Minimum bactericidal concentration (MBC) against H37Rv; format: functional

Row | Compound | Inhibition [9] [%] | MIC [15] [µg/mL] | other results
1 | Cc1cc(C2CCCC2)nc2c(C3CCCC3)cccc12 | 100 | > 6.25 | MIC [1]: 50 µg/mL (≈ 179 µM); MIC [2]: 12.5 µg/mL (≈ 44.7 µM); MIC [3]: 25 µg/mL (≈ 89.5 µM); Ratio [4]: 2 µg/mL; MIC [5]: 12.5 µg/mL (≈ 44.7 µM); Ratio [6]: 4 µg/mL; IC50 [7]: > 50 µg/mL; Ratio [8]: 8 µg/mL; MBC [10]: 100 µg/mL (≈ 358 µM); MIC [11]: 12.5 µg/mL (≈ 44.7 µM); MIC [12]: 25 µg/mL (≈ 89.5 µM); MBC [13]: 200 µg/mL (≈ 716 µM); MIC [14]: 12.5 µg/mL (≈ 44.7 µM); MBC [16]: 50 µg/mL (≈ 179 µM)
2 | CCCCCCc1cc(C)c2cccc(CCCCCC)c2n1 | 23 | > 6.25 | –
3 | Cc1cc(C(C)C)nc2ccccc12 | 57 | > 6.25 | –
4 | Cc1cc(C2CCC2)nc2ccccc12 | 67 | > 6.25 | –
5 | CCCc1cc(C)c2ccccc2n1 | 30 | > 6.25 | –
6 | Cc1cc(C2CCCC2)nc2ccccc12 | 74 | > 6.25 | –
7 | Cc1cc(C2CCCCC2)nc2ccccc12 | 16 | > 6.25 | –
8 | Cc1cc(C2CCCCC2)nc2c(C3CCCCC3)cccc12 | 53 | > 6.25 | –
9 | CCCCc1cc(C)c2cccc(CCCC)c2n1 | 33 | 6.25 (≈ 24.5 µM) | –
10 | Cc1ccnc2ccccc12 | 0 | > 6.25 | –
11 | Cc1cc(C23CC4CC(CC(C4)C2)C3)nc2ccccc12 | 76 | > 69.2 | –
12 | Cc1cc(C2CCC2)nc2c(C3CCC3)cccc12 | 100 | 12.5 (≈ 49.7 µM) | –
13 | CCCCCCc1cc(C)c2ccccc2n1 | 20 | > 6.25 | –
14 | Cc1cc(C2CC2)nc2ccccc12 | 29 | > 6.25 | –
15 | CCCc1cc(C)c2cccc(CCC)c2n1 | 36 | > 6.25 | –
16 | Cc1cc(C(C)C)nc2c(C(C)C)cccc12 | 71 | > 6.25 | –
17 | CCCCCc1cc(C)c2ccccc2n1 | 24 | > 6.25 | –
18 | CCCCc1cc(C)c2ccccc2n1 | 28 | > 6.25 | –
19 | CCCCCc1cc(C)c2cccc(CCCCC)c2n1 | 29 | > 6.25 | –
